Values after ≈ are worked out from the molar mass of the structure shown.
Assays:
Assay in all cases: in vitro antibacterial activity, minimum inhibitory concentration (agar dilution)
Format in all cases: cell-based
[1] = tested on: Pseudomonas aeruginosa M-16; settings: ATCC15692, 20 h, read-out: Minimum Inhibitory concentration (MIC) Pseudomonas aeruginosa M-16
Description: (§1) The compounds of this invention were tested for antibacterial activity according to the following procedure.
(§2) Nutrient broth and nutrient agar were prepared according to the conventional procedure. Nutrient agar was used as a vehicle. The stock solution was prepared at 100 μg/ml of the test material in the vehicle. Two-fold dilutions were made with the vehicle and then the diluted stock solution was added to a petri dish and solidified by chilling. Test organisms were grown in the nutrient broth for 20 hours at 37° C. The hardened surface was inoculated with a loopful of the test organism solution containing 1×10^6 cells per milliliter and incubated for 20 hours at 37° C. At the end of this period, growth of the organism was observed. […] The following Table 1 summarizes the activity of representative compounds as active antibacterial agents, and compares them with the reference drug Sulbenicillin.

[2] = tested on: Pseudomonas aeruginosa M-2008; settings: ATCC15691, 20 h, read-out: Minimum Inhibitory concentration (MIC) Pseudomonas aeruginosa M-2008
Description: as §1, §2

[3] = tested on: Pseudomonas aeruginosa M-12; settings: ATCC15692, 20 h, read-out: Minimum Inhibitory concentration (MIC) Pseudomonas aeruginosa M-12
Description: as §1, §2

SMILES: Cc1nc2nc(O)c(C(=O)N[C@@H](C(=O)N[C@@H]3C(=O)N4[C@@H]3SC(C)(C)[C@@H]4C(=O)O)c3ccc(O)cc3)nc2cc1Br [Compound 10]
- MIC [1]: 1.5 µg/mL (≈ 2.38 µM)

SMILES: CC1(C)S[C@@H]2[C@H](NC(=O)[C@H](NC(=O)c3nc4cc(Cl)cnc4nc3O)c3ccc(O)cc3)C(=O)N2[C@H]1C(=O)O [Compound 4]
- MIC [2]: 6.2 µg/mL (≈ 10.8 µM)
- MIC [1]: 3.1 µg/mL (≈ 5.41 µM)

SMILES: CC1(C)S[C@@H]2[C@H](NC(=O)[C@H](NC(=O)c3nc4cc(Br)cnc4nc3O)c3ccc(O)cc3)C(=O)N2[C@H]1C(=O)O [Compound 6]
- MIC [2]: 3.1 µg/mL (≈ 5.02 µM)
- MIC [1]: < 1.5 µg/mL

SMILES: CC1(C)S[C@@H]2[C@H](NC(=O)C(c3ccccc3)S(=O)(=O)O)C(=O)N2[C@H]1C(=O)O (stereo partly drawn) [11 Sulbenicillin, Sulbenicillin, reference compound]
- MIC [2]: 25 µg/mL (≈ 60.3 µM)
- MIC [1]: 25 µg/mL (≈ 60.3 µM)
- MIC [3]: 25 µg/mL (≈ 60.3 µM)

SMILES: CC1(C)S[C@@H]2[C@H](NC(=O)[C@H](NC(=O)c3nc4cncnc4nc3O)c3ccc(O)cc3)C(=O)N2[C@H]1C(=O)O [Compound 8]
- MIC [1]: < 1.56 µg/mL

SMILES: CC1(C)S[C@@H]2[C@H](NC(=O)[C@H](NC(=O)c3nc4cccnc4nc3O)c3ccc(O)cc3)C(=O)N2[C@H]1C(=O)O [Compound 2, potassium 6-[D-2-(3-hydroxypyrido[2,3-b]pyrazine-2-carboxamido)-2-(p-hydroxyphenyl)acetamido]penicillanate]
- MIC [2]: 3.1 µg/mL
- MIC [1]: 0.78 µg/mL
- MIC [3]: < 1.5 µg/mL

— US4164577A, “6-(2-Acylamino-2-arylacetamido)penicillanic acids” (priority 1977, dated 1979)
